Measured values taken from US9205179B2, “Broad-spectrum antimicrobial compositions based on combinations of taurolidine and protamine and medical devices containing such compositions” (Ethicon, Inc., priority 2011, dated 2015).

Tests used:
[1] = cited from earlier work
[2] = test system: Escherichia coli ATCC 25922; assay: In vitro bacteria attachment assay on coated mesh discs in SST medium; format: cell-based; conditions: serum containing media; same TU dosage alone or combined with PS
Procedure: (§1) Taurolidine was dissolved at 4% wt./vol. in a 70% acetone 30% water vol./vol. mixture. Protamine sulfate was dissolved at 10% wt./vol. in water under warming. 50 μl of the taurolidine (TU) solution and 20 μl of the protamine (PS) solution were applied to each mesh disk using a pipette and allowed to dry at 50° C. until the majority of the liquid was gone and then stored under vacuum. First the taurolidine solution was applied, and then immediately thereafter the protamine sulfate solution was applied. The in vitro bacteria attachment assay was developed for its utility of indicating biofilm prevention potential of prototype mesh. Since bacterial attachment to a surface is the first step of biofilm formation, a surface treatment that inhibits bacterial attachment would reduce the chance of subsequent biofilm formation. The assay was conducted in SST (Serum Saline TSB) medium to mimic in vivo and clinical conditions. The formulation of SST is Tryptic Soy Broth (TSB):serum:saline in the ratio of 1:2:7. Each test article was incubated in SST inoculated with Staphylococcus aureus ACTT 6538 or Escherichia coli ATCC 25922 at about 6 Log CFU/ml. […] Viable bacteria populations were measured by plate count on TSA (Tryptic Soy agar) medium contain neutralizing agents. […]

[3] = test system: Staphylococcus aureus ACTT 6538; assay: as above; format: cell-based; conditions: serum containing media; same TU dosage alone or combined with PS
Procedure: as §1

Compound: O=S1(=O)CCN(CN2CCS(=O)(=O)NC2)CN1 [TU, bis(1,1-dioxoperhydro-1,2,4-thiadiazinyl-4)-methane]
- Cumulative dose shown to be safe and well tolerated ([1]; cumulative dose, up to and exceeding): exceeding 300 g
- Systemic dose shown to be safe and well tolerated ([1]; systemic dose): exceeding 40 g/day
- Inhibition of attachment by E. coli to treated mesh surface [2]: less inhibition than the combination
- Inhibition of attachment by S. aureus to treated mesh surface [3]: less inhibition than the combination
